The results in this text go back to ChEMBL document CHEMBL1201862, “PubChem BioAssay data set” (2004).

Test systems include MDA-MB-231; PC-3; HCT-116; ACHN; NCI/ADR-RES; TK-10; M14; SK-MEL-28; SF-295; EKVX; NCI-H23; MDA-MB-435; OVCAR-5; LOX IMVI; IGROV-1; U-251; MOLT-4; CCRF-CEM; SK-MEL-5; HCC 2998.
Experiment in all cases: NCI-60 cell line screen, 48 h

Each structure is given as a SMILES string.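 How tested: cells in 96-well plates exposed to compound for 48 hours at five concentrations. Abbreviation: GI50, concentration required for 50% inhibition of growth.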 Calls of active or inactive are those of the source. Cut-off read from the data, not from the text of the source: active = GI50 up to about 1.1 µM and inactive = higher.

`CC(=O)c1ccc(O)c(CN(C2CCCCC2)C2CCCCC2)c1O`: the GI50 with MDA-MB-231 was > 100 µM (inactive); with PC-3, > 100 µM (inactive); in the assay on HCT-116 it was > 100 µM (inactive); in the assay with ACHN, > 100 µM (inactive); with NCI/ADR-RES it was > 100 µM (inactive); in the assay with TK-10, 74.3 µM (inactive). Moreover, the GI50 with M14, in the assay with SK-MEL-28, in the assay with SF-295, in the assay with EKVX, with NCI-H23 and with MDA-MB-435 was > 100 µM (inactive) in each case. The GI50 was > 100 µM (inactive) in the assay with OVCAR-5; > 100 µM (inactive) in the assay on LOX IMVI; > 100 µM (inactive) in the assay with IGROV-1; > 100 µM (inactive) in the assay with U-251; 61.4 µM (inactive) in the assay on MOLT-4; 0.0611 µM (active) in the assay on CCRF-CEM. Besides, the GI50 with SK-MEL-5 is > 100 µM (inactive).
In the case of `O=C1CSC2(CCN(CCCN3c4ccccc4Sc4ccc(Cl)cc43)CC2)N1`, the GI50 in the assay on HCC 2998 is 3.99 µM (inactive); in the assay with MDA-MB-231, 7.06 µM (inactive); with PC-3, 5.37 µM (inactive); in the assay with HCT-116 it was 6.14 µM (inactive); with ACHN, 11.6 µM (inactive); in the assay with NCI/ADR-RES it was 4.9 µM (inactive). Further, the GI50 is 9.4 µM (inactive) with TK-10; 6.81 µM (inactive) in the assay on M14; 15 µM (inactive) in the assay with SK-MEL-28; 10.3 µM (inactive) with SF-295; 9.31 µM (inactive) with EKVX; 9.46 µM (inactive) in the assay on NCI-H23. For the same compound, the GI50 in the assay with MDA-MB-435 was 11.4 µM (inactive); with OVCAR-5 it was 11.9 µM (inactive); in the assay on LOX IMVI it was 3.88 µM (inactive); in the assay on IGROV-1, 7.78 µM (inactive); in the assay on U-251, 8.51 µM (inactive); in the assay with SK-MEL-5, 11 µM (inactive).
In the case of `Cc1cccc(-c2cccc(COCc3cccc(-c4cccc(CO)n4)n3)n2)n1`, the GI50 is > 50 µM (inactive) in the assay with HCC 2998; 24.2 µM (inactive) with MDA-MB-231; 18.5 µM (inactive) with PC-3; > 50 µM (inactive) in the assay with HCT-116; > 50 µM (inactive) in the assay on ACHN; 5.26 µM (inactive) in the assay on NCI/ADR-RES. Further, the GI50 with TK-10 was 32.5 µM (inactive); with M14, 34.4 µM (inactive); in the assay on SK-MEL-28, > 50 µM (inactive); in the assay with SF-295, > 5 µM (inactive); with EKVX it was 35.5 µM (inactive); in the assay on MDA-MB-435, > 50 µM (inactive). Besides, the GI50 with OVCAR-5 is > 50 µM (inactive); in the assay on LOX IMVI it was > 50 µM (inactive); with IGROV-1, 13 µM (inactive); in the assay with U-251, > 50 µM (inactive); with MOLT-4, 4.41 µM (inactive); in the assay on SK-MEL-5, 11.7 µM (inactive).
As for `COc1ccccc1N1C(=O)/C(=C\c2ccccc2)SC1c1cc(OC)c(OC)c(OC)c1` (stereo unspecified), the GI50 was 37.3 µM (inactive) with HCC 2998; 23.2 µM (inactive) in the assay on MDA-MB-231; 21.4 µM (inactive) in the assay on PC-3; 31.8 µM (inactive) in the assay with HCT-116; 74.1 µM (inactive) in the assay with ACHN; 32.1 µM (inactive) with NCI/ADR-RES. Further, the GI50 was > 100 µM (inactive) in the assay with TK-10; 35.1 µM (inactive) with M14; 54 µM (inactive) in the assay with SK-MEL-28; 30.1 µM (inactive) in the assay on SF-295; 37.8 µM (inactive) with EKVX; 43.9 µM (inactive) with NCI-H23. Moreover, the GI50 with MDA-MB-435 is 17.9 µM (inactive); in the assay on OVCAR-5, 62.5 µM (inactive); in the assay on LOX IMVI, 21.9 µM (inactive); with U-251 it was 27.1 µM (inactive); with MOLT-4 it was 35 µM (inactive); with SK-MEL-5 it was 27.6 µM (inactive).
Take `CCc1ncnc2cc(OCC3CO3)c(OC)cc12` (stereo unspecified): the GI50 is 7.24 µM (inactive) in the assay with MDA-MB-231; 7.31 µM (inactive) in the assay on PC-3; 0.577 µM (active) in the assay on HCT-116; 1.37 µM (inactive) in the assay on ACHN; 7.23 µM (inactive) in the assay on NCI/ADR-RES; 10.8 µM (inactive) with TK-10. In addition, the GI50 is 5.28 µM (inactive) in the assay with M14; 11.7 µM (inactive) with SK-MEL-28; 3.15 µM (inactive) with SF-295; 10.6 µM (inactive) in the assay with EKVX; 2.61 µM (inactive) with NCI-H23; 5.12 µM (inactive) with MDA-MB-435. The GI50 in the assay with OVCAR-5 was 13 µM (inactive); in the assay with LOX IMVI it was 0.646 µM (active); in the assay with IGROV-1 it was 1.06 µM (active); in the assay with U-251 it was 4.31 µM (inactive); in the assay with MOLT-4, 0.153 µM (active); with CCRF-CEM it was 0.436 µM (active). Besides, in the assay on SK-MEL-5, the GI50 was 6.34 µM (inactive).
As for `COc1ccc(N2CC(=O)N(C(=O)COc3ccc(OCC(=O)N4C(=O)CN(c5ccc(OC)cc5)C4=S)cc3)C2=S)cc1`, the GI50 is > 100 µM (inactive) in the assay with HCC 2998; > 100 µM (inactive) in the assay with MDA-MB-231; > 100 µM (inactive) with PC-3; 24 µM (inactive) with HCT-116; > 100 µM (inactive) with ACHN; > 100 µM (inactive) with NCI/ADR-RES. The GI50 in the assay on TK-10 is > 100 µM (inactive); in the assay on M14, > 100 µM (inactive); in the assay with SK-MEL-28, > 100 µM (inactive); with SF-295, > 100 µM (inactive); with EKVX it was 81.1 µM (inactive); in the assay on NCI-H23, 88.1 µM (inactive). The GI50 in the assay on MDA-MB-435 was > 100 µM (inactive); in the assay on OVCAR-5 it was > 100 µM (inactive); in the assay with IGROV-1 it was 15.4 µM (inactive); with U-251, > 100 µM (inactive); in the assay on MOLT-4 it was 30 µM (inactive); in the assay with SK-MEL-5, 45.6 µM (inactive).
Regarding `O=[N+]([O-])c1ccc2c(c1)N=C1OC(c3c[nH]c4ccc(COc5ccccc5)cc34)C(O)=C1N2` (stereo unspecified), the GI50 in the assay on HCC 2998 was 21.2 µM (inactive); in the assay on MDA-MB-231, 56.6 µM (inactive); in the assay on PC-3 it was > 100 µM (inactive); with HCT-116, 72.8 µM (inactive); in the assay on ACHN it was > 100 µM (inactive); in the assay on NCI/ADR-RES, > 100 µM (inactive). Besides, the GI50 in the assay with TK-10 was 59.2 µM (inactive); with M14, > 100 µM (inactive); with SK-MEL-28, > 100 µM (inactive); in the assay on SF-295, 47.6 µM (inactive); in the assay with EKVX, > 100 µM (inactive); in the assay with NCI-H23, > 100 µM (inactive). Besides, the GI50 in the assay on MDA-MB-435 is > 100 µM (inactive); in the assay on OVCAR-5 it was > 100 µM (inactive); in the assay on LOX IMVI it was > 100 µM (inactive); in the assay on IGROV-1, > 100 µM (inactive); with U-251, > 100 µM (inactive); in the assay with MOLT-4, 1.82 µM (inactive). Moreover, in the assay on SK-MEL-5, the GI50 is 37.5 µM (inactive).
As for `CC1(C)OC2CN(C(=O)OCc3ccccc3)C(CO)C2O1` (stereo unspecified), the GI50 in the assay with HCC 2998, in the assay with MDA-MB-231, with PC-3, with HCT-116, in the assay on ACHN and in the assay on NCI/ADR-RES was > 100 µM (inactive) throughout. Moreover, the GI50 with TK-10, with M14, with SK-MEL-28, in the assay with SF-295, with EKVX and in the assay with NCI-H23 was > 100 µM (inactive) each time. For the same compound, the GI50 with MDA-MB-435, with OVCAR-5, in the assay with LOX IMVI, in the assay with IGROV-1, with U-251 and in the assay with MOLT-4 was > 100 µM (inactive) each time. Also, in the assay on SK-MEL-5, the GI50 is > 100 µM (inactive).
With `C=CCC(C(=O)Nc1cccc2nc[nH]c12)C(=O)OCC` (stereo unspecified), the GI50 with HCC 2998 is > 100 µM (inactive); in the assay on MDA-MB-231 it was > 100 µM (inactive); in the assay on PC-3, > 100 µM (inactive); in the assay with HCT-116 it was > 100 µM (inactive); with ACHN it was > 100 µM (inactive); in the assay with NCI/ADR-RES it was 83.6 µM (inactive). Further, the GI50 with TK-10, in the assay with M14, with SK-MEL-28, in the assay on SF-295, in the assay on EKVX and in the assay on MDA-MB-435 was > 100 µM (inactive) each time. The GI50 with OVCAR-5, in the assay with LOX IMVI, with IGROV-1, in the assay on U-251 and in the assay with MOLT-4 was > 100 µM (inactive) each time.
`O=C(c1ccc(Cl)cc1)N(C(=S)OC12CC3CC(CC(C3)C1)C2)c1ccccc1`: the GI50 was 31.6 µM (inactive) in the assay with HCC 2998; 29.4 µM (inactive) in the assay with MDA-MB-231; 34 µM (inactive) in the assay with PC-3; 33.5 µM (inactive) in the assay on HCT-116; 34.8 µM (inactive) in the assay with ACHN; 36.5 µM (inactive) with NCI/ADR-RES. Moreover, the GI50 with TK-10 is 37.1 µM (inactive); in the assay with M14, 34 µM (inactive); in the assay with SK-MEL-28, > 100 µM (inactive); with SF-295, 36.8 µM (inactive); in the assay with EKVX it was 26.6 µM (inactive); in the assay on NCI-H23, 35.6 µM (inactive). Moreover, the GI50 was 43.8 µM (inactive) with MDA-MB-435; 45.6 µM (inactive) with OVCAR-5; 30.2 µM (inactive) in the assay with U-251; 26.9 µM (inactive) in the assay with MOLT-4; 16.3 µM (inactive) with CCRF-CEM; 32 µM (inactive) in the assay with SK-MEL-5.
In the case of `COc1ccc(-c2cc(-c3ccc(Nc4ccnc5cc(C(F)(F)F)ccc45)cc3)nc(N)c2C#N)cc1`, the GI50 with HCC 2998 is > 100 µM (inactive); in the assay on MDA-MB-231 it was 99.8 µM (inactive); in the assay on PC-3, 45.1 µM (inactive); in the assay with HCT-116, 23.2 µM (inactive); in the assay with ACHN, > 100 µM (inactive); with NCI/ADR-RES it was > 100 µM (inactive). The GI50 in the assay with TK-10 is > 100 µM (inactive); with M14 it was 96.8 µM (inactive); in the assay on SK-MEL-28, 32.5 µM (inactive); in the assay with SF-295, 32 µM (inactive); in the assay on EKVX it was > 100 µM (inactive); in the assay with NCI-H23, > 100 µM (inactive). Moreover, the GI50 is > 100 µM (inactive) in the assay with MDA-MB-435; > 100 µM (inactive) in the assay with OVCAR-5; 33.3 µM (inactive) with LOX IMVI; 75 µM (inactive) in the assay with U-251; 95.5 µM (inactive) with MOLT-4; > 100 µM (inactive) with SK-MEL-5.
